Laboratory results published in patent publication US20210346388A1, “CDC7-Inhibiting Purine Derivatives and their use for the Treatment of Neurological Conditions” (CONSEJO SUPERIOR DE INVESTIGACIONES CIENTIFICAS (CSIC), priority 2018, published 2021).

How the values were obtained:
[1] = molecular target: recombinant human Cdc7/DBF4 (Homo sapiens, UniProt O00311); experiment: LanthaScreen Eu Kinase Inhibition Assay (Cdc7 inhibition); assay type: binding; conditions: recombinant human Cdc7/DBF4 0.5 nM, 60 min room temperature, 1% DMSO; read-out: Cdc7 CI50
Chain of recombinant human Cdc7/DBF4 (O00311 whole entry): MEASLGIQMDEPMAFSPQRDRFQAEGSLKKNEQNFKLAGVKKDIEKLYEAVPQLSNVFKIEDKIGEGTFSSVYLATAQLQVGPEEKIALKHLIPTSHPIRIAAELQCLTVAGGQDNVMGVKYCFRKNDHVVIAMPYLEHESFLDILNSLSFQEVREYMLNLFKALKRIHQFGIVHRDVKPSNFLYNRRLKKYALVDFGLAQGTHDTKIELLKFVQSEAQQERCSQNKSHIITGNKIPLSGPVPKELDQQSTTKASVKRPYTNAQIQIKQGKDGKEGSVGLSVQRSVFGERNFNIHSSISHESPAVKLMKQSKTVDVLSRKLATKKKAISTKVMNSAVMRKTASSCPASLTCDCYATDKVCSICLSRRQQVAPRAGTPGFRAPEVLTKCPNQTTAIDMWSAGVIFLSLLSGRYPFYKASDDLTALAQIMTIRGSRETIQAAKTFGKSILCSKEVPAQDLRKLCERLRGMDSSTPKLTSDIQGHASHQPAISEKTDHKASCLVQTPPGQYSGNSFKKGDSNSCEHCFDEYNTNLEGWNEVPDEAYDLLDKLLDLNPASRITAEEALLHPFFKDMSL
Chain of recombinant human Cdc7/DBF4 (Q9UBU7 whole entry partner): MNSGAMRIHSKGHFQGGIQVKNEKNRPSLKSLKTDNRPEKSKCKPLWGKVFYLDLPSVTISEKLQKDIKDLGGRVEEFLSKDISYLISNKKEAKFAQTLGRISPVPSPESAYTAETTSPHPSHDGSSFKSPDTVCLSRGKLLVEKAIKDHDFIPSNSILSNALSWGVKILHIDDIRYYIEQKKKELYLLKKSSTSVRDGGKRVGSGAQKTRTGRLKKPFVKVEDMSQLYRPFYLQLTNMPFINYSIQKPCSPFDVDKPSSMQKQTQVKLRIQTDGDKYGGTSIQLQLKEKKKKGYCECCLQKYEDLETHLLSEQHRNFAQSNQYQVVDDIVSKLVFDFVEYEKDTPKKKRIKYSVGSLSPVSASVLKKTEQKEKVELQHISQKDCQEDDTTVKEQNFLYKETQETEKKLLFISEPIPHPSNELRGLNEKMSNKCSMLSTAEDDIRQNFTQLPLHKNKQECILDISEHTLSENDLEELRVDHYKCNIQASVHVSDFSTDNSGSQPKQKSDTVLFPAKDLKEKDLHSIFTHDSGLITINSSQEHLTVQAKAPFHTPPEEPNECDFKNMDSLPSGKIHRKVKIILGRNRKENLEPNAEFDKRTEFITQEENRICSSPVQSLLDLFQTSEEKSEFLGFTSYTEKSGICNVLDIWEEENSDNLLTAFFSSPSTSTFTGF
Text: The LanthaScreen Eu Kinase Inhibition Assay uses an Alexa Fluor™ marker which binds to a kinase and is detected by the addition of an Eu-labelled antibody. The binding of the marker and the antibody to the kinase results in a high degree of FRET, whereas the displacement of the marker by an inhibitor results in a loss of FRET. Unlike many other kinase activity assays, this is a simple mix and read assay, without stages of development. This assay method has been developed by “Life Technologies” and they identify competitive ATP kinase inhibitors, making them suitable for the detection of any compound which binds to the ATP site.
The compounds are evaluated in 1% DMSO (final) in the well. A mixture of recombinant human Cdc7/DBF4 (0.5 nM), Eu-anti-GST antibody (2 nM) and Alexa Fluor marker (1 nM) in a buffer of 50 mM HEPES pH 7.5, 0.01% BRIJ-35, 10 mM MgCl2, 1 mM EGTA was used. In white plates with […], with a low volume, and coded (Greiner cat. #784207), 160 nL (100×compound in 100% DMSO), 3.84 μl (buffer with Cdc7/DBF4), […] (antibody), 4.0 μl (marker) are added. It is stirred for 30 s and incubated at room temperature for 60 min. Next, the fluorescence is measured in the plate reader and the data is analysed (Table 1).

[2] = PAMPA-BBB permeability (porcine brain lipid artificial membrane); assay type: in vitro ADME; set-up: key to PAMPA prediction of the penetration into the central nervous system (CNS): permeable to the BBB (CNS+) if it has a permeability >4.48×10^−6 cm·s^−1; CNS+/−: located in the zone of uncertainty; conditions: for Papp at 2.5 h: pig, PAMPA, porcine brain lipid, PBS pH 7.4/EtOH 70:30, 2 h 30 min at 25° C., mean ± SD, read-out: Pe (permeability, PAMPA-BBB); for PAMPA prediction of the penetration into the central nervous system (CNS): prediction from Pe, PAMPA-BBB
Text: An essential requirement that must be met by drugs for the treatment of neurodegenerative diseases is the ability to cross the blood-brain barrier (BBB) since, otherwise, they could not act on the target of interest. Therefore, for the compounds that are non-permeable or located in the zone of uncertainty, it could be necessary for them to be suitably conveyed in a pharmaceutical formulation by means of methods known by those skilled in the art, such as by means of encapsulation. This ability can be predicted in vitro by using a method known by the acronym PAMPA (Parallel Artificial Membrane Permeability Assay) described by Di et al. (Di, L.; Kerns, E. H.; Fan, K.; McConnell, O. J.; Carter, G. T. Eur. J. Med. Chem., 2003, 38 (3), 223-232) and that has subsequently been fine-tuned in our research group. Said method enables the effective permeability through artificial membranes to be predicted by means of a passive diffusion process.
First, it is necessary to validate the method, for which reason 10 commercial compounds, whose ability to penetrate the central nervous system (CNS) is known, are used and will be specified below, obtaining in this case good linear correlation between the experimental permeability values (Pe) and those described (FIG. 1). This correlation line obtained following the pattern described in the literature makes it possible to establish the limits for predicting whether a compound can cross the blood-brain barrier or not. Thus, a compound is considered to be permeable to the BBB (CNS+) if it has a permeability >4.48×10^−6 cm·s^−1.
For the procedure, between 3-5 mg of caffeine, desipramine, enoxacin, hydrocortisone, ofloxacin, piroxicam and testosterone, 12 mg of promazine and 25 mg of atenolol and verapamil were taken and dissolved in EtOH (1000 μl). 100 μl of these solutions were taken and EtOH (1400 μl) and phosphate buffer (PBS) pH=7.4 (3500 μl) were added in order to reach a final EtOH concentration of 30% v/v in solution. Lastly, the solutions were filtered.
Moreover, a solution of PBS/EtOH (70:30) was added to each well of the acceptor plate (180 μl). The donor plate was impregnated with a solution of porcine brain lipid (4 μl) dissolved in dodecane (20 mg·ml^−1). After 5 min, a solution of each compound was added on this plate (180 μl).
Of the compounds evaluated, between 1-2 mg were taken and dissolved in EtOH (1500 μl) and phosphate buffer (PBS) pH=7.4 (3500 μl), filtered and added to the donor plate. With these solutions, the wavelengths at which they absorb the compounds are determined and the initial absorbance levels at these wavelengths are measured by using a UV absorbance reader. Each sample was analysed at two to five wavelengths, in three wells and in two independent experiments.
Next, the donor plate was deposited on the acceptor plate forming a sort of “sandwich” and they were left to incubate for 2 h and 30 min at 25° C. Thus, the compounds will pass from the donor plate to the acceptor plate through the porcine brain lipid by means of passive diffusion. After that time, the donor plate is carefully removed and the final concentration and absorbance of both the commercial and the synthesised compounds are determined. The results obtained are expressed as the mean of the measurements [standard deviation (SD)] of the different experiments performed and are recorded in Table 2.

[3] = system: SH-SY5Y human neuroblastoma cell line; experiment: cells; assay type: cell-based
Experimental: The data represents the mean of four different experiments ±SEM (*p<0.05).
The SH-SY5Y human neuroblastoma cell line was grown at 37° C. with 5% CO2 in DMEN (Dulbecco's Modified Eagle Medium) enriched with L-glutamine (2 mM), 1% non-essential amino acids, 1% Penicillin/Streptomycin and 10% foetal bovine serum. In the state of semi-confluence, the cells were treated with the Cdc7 inhibitor (compound 3) at different concentrations for 1.30 hours post-addition of the causative agent of the TDP-43 phosphorylation; ethacrynic acid (20 μM) (Sigma). At 24 hours, the cellular viability was evaluated with MTT ([3-(4,5-dimethylthiazol-2-yl)-2,5-diphenyltetrazolium bromide) following a described procedure (Denizot F, Lang R. J Immunol Methods. 1987; 89:271-7).

| IC50 [1] | Papp at 2.5 h [2] | SMILES | PAMPA prediction of the penetration into the central nervous system (CNS) [2] | Reversal of cell death caused by ethacrynic acid (neuroprotective effect, MTT viability) ([3]; SH-SY5Y cells, ethacrynic acid 20 μM, inhibitor at 10 μM, viability at 24 hours) | mortality at 20 µM ([3]; Homo sapiens, SH-SY5Y, 24 h, read-out: Cell mortality due to excess TDP-43 phosphorylation) |
| --- | --- | --- | --- | --- | --- |
| 1080 nM | 2.5 ± 0.1 ×10⁻⁶ cm/s | COc1ccc(C(=O)CSc2ncnc3[nH]cnc23)cc1 [compound 2, 1-(4-methoxyphenyl)-2-((9H-purin-6-yl)thio)-ethan-1-one] | CNS+/− |  |  |
| 698 nM | 9.6 ± 0.8 ×10⁻⁶ cm/s | O=C(CSc1ncnc2[nH]cnc12)c1ccc2ccccc2c1 [compound 3, 1-(naphthalen-2-yl)-2-((9H-purin-6-yl)thio)-ethan-1-one] | CNS+ (permeable to the BBB (CNS+) if it has a permeability >4.48×10^−6 cm·s^−1) | this death is reversed |  |
| 1710 nM | 2.4 ± 1 ×10⁻⁶ cm/s | COc1cccc(C(=O)CSc2ncnc3[nH]cnc23)c1 [compound 4, 1-(3-methoxyphenyl)-2-((9H-purin-6-yl)thio)-ethan-1-one] | CNS+/− |  |  |
| 142 nM | 25.1 ± 1.3 ×10⁻⁶ cm/s | Clc1ccc(CCSc2ncnc3[nH]cnc23)cc1 [compound 6, 6-((4-chlorophenethyl)thio)-9H-purine] | CNS+ (permeable to the BBB (CNS+) if it has a permeability >4.48×10^−6 cm·s^−1) |  |  |
| 305 nM | 10.6 ± 0.5 ×10⁻⁶ cm/s | Clc1cccc(CCSc2ncnc3[nH]cnc23)c1 [compound 7, 6-((3-chlorophenethyl)thio)-9H-purine] | CNS+ (permeable to the BBB (CNS+) if it has a permeability >4.48×10^−6 cm·s^−1) |  |  |
|  | 11.6 ± 0.5 ×10⁻⁶ cm/s | Clc1ccccc1CCSc1ncnc2[nH]cnc12 [compound 8, 6-((2-chlorophenethyl)thio)-9H-purine] | CNS+ (permeable to the BBB (CNS+) if it has a permeability >4.48×10^−6 cm·s^−1) |  |  |
| 397 nM | 10.2 ± 0.5 ×10⁻⁶ cm/s | Fc1ccc(CCSc2ncnc3[nH]cnc23)cc1 [compound 9, 6-((4-fluorophenethyl)thio)-9H-purine] | CNS+ (permeable to the BBB (CNS+) if it has a permeability >4.48×10^−6 cm·s^−1) |  |  |
| 234 nM | 4.5 ± 1.2 ×10⁻⁶ cm/s | c1ccc(CSc2ncnc3[nH]ccc23)cc1 [compound 10, 4-(benzylthio)-7H-pyrrolo[2,3-d]pyrimidine] | CNS+ (permeable to the BBB (CNS+) if it has a permeability >4.48×10^−6 cm·s^−1) |  |  |
|  |  | C=C(CC)C(=O)c1ccc(OCC(=O)O)c(Cl)c1Cl [ethacrynic acid, reference compound] |  |  | 40% |

| SMILES | IC50 [1] | Papp at 2.5 h [2] | PAMPA prediction of the penetration into the central nervous system (CNS) [2] | Reversal of cell death caused by ethacrynic acid (neuroprotective effect, MTT viability) ([3]; SH-SY5Y cells, ethacrynic acid 20 μM, inhibitor at 10 μM, viability at 24 hours) | mortality at 20 µM ([3]; Homo sapiens, SH-SY5Y, 24 h, read-out: Cell mortality due to excess TDP-43 phosphorylation) |
| --- | --- | --- | --- | --- | --- |
| O=C(CSc1ncnc2[nH]cnc12)c1ccc(I)cc1 [compound 5, 1-(4-iodophenyl)-2-((9H-purin-6-yl)thio)-ethan-1-one] | 380 nM | 10.5 ± 1.2 ×10⁻⁶ cm/s | CNS+ (permeable to the BBB (CNS+) if it has a permeability >4.48×10^−6 cm·s^−1) |  |  |
